The values that follow come from patent publication US11773099B2, “Compounds and their methods of use” (Praxis Precision Medicines, Inc., priority 2019, dated 2023).

Broadly, the inhibition is the change of the read-out against control, counted positive when it falls.

Some results are limits rather than exact numbers.

For the test, the target named is T1, human Nav1.6 (hNav1.6) (Homo sapiens, UniProt Q9UQD0).
T1 construct: expressed in transfected cells; host or cells: HEK-293 (G418 selection)
T1 sequence (Q9UQD0 whole entry): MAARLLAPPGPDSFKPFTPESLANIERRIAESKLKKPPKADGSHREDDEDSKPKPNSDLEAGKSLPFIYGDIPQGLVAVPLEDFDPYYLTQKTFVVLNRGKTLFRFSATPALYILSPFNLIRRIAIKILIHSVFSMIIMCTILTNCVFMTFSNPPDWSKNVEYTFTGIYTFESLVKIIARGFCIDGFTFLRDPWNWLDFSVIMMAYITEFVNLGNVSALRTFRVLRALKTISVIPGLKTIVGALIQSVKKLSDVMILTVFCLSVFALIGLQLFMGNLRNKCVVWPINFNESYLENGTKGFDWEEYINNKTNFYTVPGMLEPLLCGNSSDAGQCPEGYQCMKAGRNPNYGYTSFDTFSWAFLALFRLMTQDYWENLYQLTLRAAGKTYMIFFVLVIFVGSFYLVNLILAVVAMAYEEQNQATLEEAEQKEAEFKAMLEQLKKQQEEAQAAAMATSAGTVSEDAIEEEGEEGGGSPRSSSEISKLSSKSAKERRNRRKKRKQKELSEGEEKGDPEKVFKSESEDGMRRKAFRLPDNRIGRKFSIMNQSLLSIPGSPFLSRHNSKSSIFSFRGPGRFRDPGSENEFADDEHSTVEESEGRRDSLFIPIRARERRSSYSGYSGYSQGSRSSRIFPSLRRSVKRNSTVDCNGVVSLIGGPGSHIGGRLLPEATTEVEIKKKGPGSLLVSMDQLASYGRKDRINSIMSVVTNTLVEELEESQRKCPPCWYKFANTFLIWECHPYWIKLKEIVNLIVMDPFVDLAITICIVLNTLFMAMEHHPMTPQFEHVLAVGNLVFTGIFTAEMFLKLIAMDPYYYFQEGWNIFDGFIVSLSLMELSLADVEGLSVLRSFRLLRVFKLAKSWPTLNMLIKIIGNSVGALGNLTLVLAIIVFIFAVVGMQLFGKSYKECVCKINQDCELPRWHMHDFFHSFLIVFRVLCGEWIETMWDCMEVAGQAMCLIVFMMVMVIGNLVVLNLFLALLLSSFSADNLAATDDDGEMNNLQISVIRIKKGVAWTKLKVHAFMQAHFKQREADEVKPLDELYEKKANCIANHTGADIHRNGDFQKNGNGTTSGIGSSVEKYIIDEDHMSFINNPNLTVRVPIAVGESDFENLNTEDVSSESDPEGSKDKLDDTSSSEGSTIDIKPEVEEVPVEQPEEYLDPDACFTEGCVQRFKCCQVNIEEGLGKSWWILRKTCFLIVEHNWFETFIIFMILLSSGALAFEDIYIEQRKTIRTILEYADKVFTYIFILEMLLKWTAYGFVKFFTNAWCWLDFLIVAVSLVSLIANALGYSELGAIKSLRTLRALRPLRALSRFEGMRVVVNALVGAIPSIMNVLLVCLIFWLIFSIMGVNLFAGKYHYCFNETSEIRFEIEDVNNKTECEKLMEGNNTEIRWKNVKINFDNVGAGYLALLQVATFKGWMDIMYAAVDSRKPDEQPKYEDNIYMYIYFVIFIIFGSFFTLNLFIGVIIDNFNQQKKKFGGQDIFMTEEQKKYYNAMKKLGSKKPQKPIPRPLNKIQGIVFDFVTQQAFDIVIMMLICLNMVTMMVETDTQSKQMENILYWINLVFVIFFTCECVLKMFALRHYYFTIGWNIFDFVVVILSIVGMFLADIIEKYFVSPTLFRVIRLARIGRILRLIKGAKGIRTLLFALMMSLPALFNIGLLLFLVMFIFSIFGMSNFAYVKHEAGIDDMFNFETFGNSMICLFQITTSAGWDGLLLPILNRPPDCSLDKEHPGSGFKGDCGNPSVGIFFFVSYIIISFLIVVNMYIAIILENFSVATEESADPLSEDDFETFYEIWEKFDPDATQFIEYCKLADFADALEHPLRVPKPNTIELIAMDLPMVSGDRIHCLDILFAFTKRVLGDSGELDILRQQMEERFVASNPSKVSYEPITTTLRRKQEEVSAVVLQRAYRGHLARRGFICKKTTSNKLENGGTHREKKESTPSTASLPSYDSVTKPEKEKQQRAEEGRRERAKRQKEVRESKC
Briefly: Modulation of late sodium current (INaL), PatchXpress electrophysiology. In kind it is cell-based. The conditions noted are these: HEK293; compound at 1 μM; HEK-293 cells expressing recombinant hNav1.6; late current evoked by 300 nM ATX-II; read-out: INaL v1.6 (1 μM, % Inhibition). The protocol:
Functional characterization of exemplary compounds to modulate INaL expressed by the Nav1.6 voltage-gated sodium channel was accomplished using the PatchXpress™ high throughput electrophysiology platform (Molecular Devices, Sunnyvale, Calif.). HEK-293 cells expressing recombinant, human Nav1.6 (hNav1.6) were grown in DMEM/high-glucose Dulbecco's modified, 10% FBS, 2 mM sodium pyruvate, 10 mM HEPES and 400 μg/mL G418. Cells were grown to 50%-80% confluency prior to harvesting. Trypsinized cells were washed, allowed to recover for 1 hour and then resuspended in extracellular recording solution at a concentration of 1×10^6 cells/ml. The onboard liquid handling facility of the PatchXpress was used for dispensing cells and applying test compounds. Nav late currents were evoked by the application of 300 nM ATX-II. INaL was evoked by depolarizing pulses to 0 mV for 200 ms from a non-inactivating holding potential (e.g., −120 mV) at a frequency of 0.1 Hz. INaL amplitude and stability were determined by analyzing the mean current amplitude over the final 20 ms of the test pulse. Following steady state block with exemplary compounds (e.g., as described herein), a Na^+ free solution containing an impermeant cation (e.g., Choline or NDMG) was added to confirm the identify of the sodium current. Percent steady-state inhibition of INaL was calculated as: [(INaL_compound)/(INaL_control)]*100, where INaL_compound and INaL_control represent INaL recorded in the presence or absence of compound, respectively.
Results from this assay relating to percent inhibition of INaL at hNav1.6 (measured using procedure similar to described above but using HEK-293 cells expressing recombinant, human Nav1.6 (hNav1.6) at 1 μM are summarized in Table 1 below. In this table, “A” indicates inhibition of less than 30%; “B” indicates inhibition of between about 30% to about 70%; and “C” indicates inhibition of greater than 70%.

Take `FC(F)(F)Oc1ccc(-c2ccn3cncc3c2)cc1` [Compound 1]: the inhibition at 1 µM is less than 30%.

For the molecule `FC(F)(F)Oc1ccc(-c2ccn3cnc(C(F)(F)F)c3c2)cc1` [Compound 2], the inhibition at 1 µM is less than 30%.

In the case of `FC(F)(F)Oc1ccc(-c2ccn3cnc(C(F)(F)F)c3n2)cc1` [Compound 4], the inhibition at 1 µM lay in the range of 30 to 70%.

For `Cc1cc(OC(F)(F)F)ccc1-c1cnn2cncc2c1` [Compound 5, 3-[2-methyl-4-(trifluoromethoxy)phenyl]imidazo[1,5-b]pyridazine], the inhibition at 1 µM was less than 30%.

Regarding `Cc1cc(OC(F)(F)F)ccc1-c1cnn2cnc(C(F)(F)F)c2c1` [Compound 6], the inhibition at 1 µM was less than 30%.

Take `FC(F)(F)Oc1ccc(-c2cc3cncn3cn2)cc1` [Compound 7, 7-[4-(trifluoromethoxy)phenyl]imidazo[1,5-c]pyrimidine]: the inhibition at 1 µM is less than 30%.

In the case of `FC(F)(F)Oc1ccc(-c2cc3c(C(F)(F)F)ncn3cn2)cc1` [Compound 8], the inhibition at 1 µM is more than 70%.

For the molecule `Cc1cc(OC(F)(F)F)ccc1-c1cc2cncn2cn1` [Compound 9, 7-[2-methyl-4-(trifluoromethoxy)phenyl]imidazo[1,5-c]pyrimidine], the inhibition at 1 µM was less than 30%.

As to `Fc1cc(-c2cc3cncn3cn2)cnc1OCC(F)(F)F` [Compound 10, 7-[5-fluoro-6-(2,2,2-trifluoroethoxy)-3-pyridyl]imidazo[1,5-c]pyrimidine], the inhibition at 1 µM was less than 30%.

Consider `C[C@H](Oc1ncc(-c2cc3cncn3cn2)cc1F)C(F)(F)F` [Compound 11, 7-[5-fluoro-6-[(1S)-2,2,2-trifluoro-1-methyl-ethoxy]-3-pyridyl]imidazo[1,5-c]pyrimidine], for which the inhibition at 1 µM was 30 to 70%.

Turning to `C[C@@H](Oc1ncc(-c2cc3cncn3cn2)cc1F)C(F)(F)F` [Compound 12, 7-[5-fluoro-6-[(1R)-2,2,2-trifluoro-1-methyl-ethoxy]-3-pyridyl]imidazo[1,5-c]pyrimidine], the inhibition at 1 µM is less than 30%.

As for `CC(C)(Oc1ncc(-c2cc3cncn3cn2)cc1F)C(F)(F)F` [Compound 13, 7-[5-fluoro-6-(2,2,2-trifluoro-1,1-dimethyl-ethoxy)-3-pyridyl]imidazo[1,5-c]pyrimidine], the inhibition at 1 µM lay within 30 to 70%.

For the molecule `Cc1cc(OC(F)(F)F)ccc1-c1cc2c(C(F)(F)F)ncn2cn1` [Compound 14], the inhibition at 1 µM was more than 70%.

Take `C[C@@H](Oc1ncc(-c2cc3c(C(F)(F)F)ncn3cn2)cc1F)C(F)(F)F` [Compound 15]: the inhibition at 1 µM lay within 30 to 70%.

With `Fc1cc(-c2cc3c(C(F)(F)F)ncn3cn2)cnc1OCC(F)(F)F` [Compound 16], the inhibition at 1 µM was less than 30%.

Consider `CC(C)(Oc1ncc(-c2cc3c(C(F)(F)F)ncn3cn2)cc1F)C(F)(F)F` [Compound 17], for which the inhibition at 1 µM lay in the range of 30 to 70%.

Take `C[C@H](Oc1ncc(-c2cc3c(C(F)(F)F)ncn3cn2)cc1F)C(F)(F)F` [Compound 18]: the inhibition at 1 µM was in the range of 30 to 70%.

On to `C[C@@H](Oc1ncc(-c2cc3c(C(F)F)ncn3cn2)cc1F)C(F)(F)F` [Compound 19], for which the inhibition at 1 µM was less than 30%.

`C[C@H](Oc1ncc(-c2cc3c(C(F)F)ncn3cn2)cc1F)C(F)(F)F` [Compound 20]: the inhibition at 1 µM is less than 30%.

With `CC(C)(Oc1ncc(-c2cc3c(C(F)F)ncn3cn2)cc1F)C(F)(F)F` [Compound 21], the inhibition at 1 µM is 30 to 70%.

Turning to `Fc1cc(-c2cc3c(C(F)F)ncn3cn2)cnc1OCC(F)(F)F` [Compound 22], the inhibition at 1 µM is less than 30%.

For the molecule `Cc1cc(OC(F)(F)F)ccc1-c1cc2c(C(F)F)ncn2cn1` [Compound 23], the inhibition at 1 µM was less than 30%.

For `COCc1ncn2cnc(-c3cnc(O[C@@H](C)C(F)(F)F)c(F)c3)cc12` [Compound 24], the inhibition at 1 µM was less than 30%.

With `COCc1ncn2cnc(-c3cnc(O[C@H](C)C(F)(F)F)c(F)c3)cc12` [Compound 25], the inhibition at 1 µM was more than 70%.

Take `COCc1ncn2cnc(-c3ccc(OC(F)(F)F)cc3)cc12` [Compound 26]: the inhibition at 1 µM lay within 30 to 70%.

`COCc1ncn2cnc(-c3cnc(OC(C)(C)C(F)(F)F)c(F)c3)cc12` [Compound 27]: the inhibition at 1 µM was less than 30%.
